The record followed here is patent publication US9434724B2, “Quinuclidines for modulating alpha 7 activity” (priority 2014, dated 2016).

Data set [1] addresses T1, rat brain nicotinic receptor (α7 NAChR) (Rattus norvegicus (Rat), UniProt Q05941). The format is binding.
Data set [2] can be described thus: Metabolic stability assay in human liver microsomes (HLM). The format is in vitro ADME. Conditions: 1 μM. The essentials: (§1)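 In Protocol 1, compound was 1 μM final with NADPH at 37 °C, sampled at 0–45 min. In Protocol 2, 1.5 μM compound with 0.75 mg/mL microsomes (pre-NADPH mix) in 0.1 M potassium phosphate, 1 mM EDTA, pH 7.4 was pre-incubated 10 min, then NADPH started the reaction. Both: LC-MS/MS % remaining versus time 0, half-life from single-phase exponential fit.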
(In general: Microsomes from liver hold many membrane-bound enzymes, among them those of drug oxidation.)

A short description of data set [3]: Metabolic stability assay in rat liver microsomes (RLM). It is filed as in vitro ADME. Conditions: 1 μM. The procedure, abridged: as §1
A short description of the next data set: Human plasma stability. The format is in vitro ADME. The conditions noted are these: plasma, 5 μM. The essentials:
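Protocol 1: 1 μM compound in pH 7.4 sodium-heparin human plasma at 37° C, sampled 0–120 min. Protocol 2: 5 μM in plasma at pH 7.4–8.0, 37° C, duplicates, sampled 0–120 min. Both: LC-MS/MS percent remaining versus t0; half-life from single-phase exponential decay.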

In another data set the target is CYP3A4 (Homo sapiens (Human), UniProt P08684). The conditions noted are these: microsomes, 5 min.
Chain of CYP3A4 (P08684 whole entry): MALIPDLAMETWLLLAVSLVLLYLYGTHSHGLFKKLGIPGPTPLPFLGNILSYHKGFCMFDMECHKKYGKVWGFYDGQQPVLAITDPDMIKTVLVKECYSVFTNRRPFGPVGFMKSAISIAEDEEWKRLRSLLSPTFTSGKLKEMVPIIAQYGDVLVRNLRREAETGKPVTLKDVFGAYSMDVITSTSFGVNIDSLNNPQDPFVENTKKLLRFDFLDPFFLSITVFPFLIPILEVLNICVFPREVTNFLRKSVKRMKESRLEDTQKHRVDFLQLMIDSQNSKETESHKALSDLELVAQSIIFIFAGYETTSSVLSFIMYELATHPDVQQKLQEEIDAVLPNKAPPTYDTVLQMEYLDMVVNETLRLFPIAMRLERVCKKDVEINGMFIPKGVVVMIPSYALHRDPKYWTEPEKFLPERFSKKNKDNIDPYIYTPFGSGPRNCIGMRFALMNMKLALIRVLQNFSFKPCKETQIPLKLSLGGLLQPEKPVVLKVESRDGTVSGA
For the next data set, the target named is CYP2C19 (Homo sapiens (Human), UniProt P33261). Conditions: microsomes, 45 min.
Chain of CYP2C19 (P33261 whole entry): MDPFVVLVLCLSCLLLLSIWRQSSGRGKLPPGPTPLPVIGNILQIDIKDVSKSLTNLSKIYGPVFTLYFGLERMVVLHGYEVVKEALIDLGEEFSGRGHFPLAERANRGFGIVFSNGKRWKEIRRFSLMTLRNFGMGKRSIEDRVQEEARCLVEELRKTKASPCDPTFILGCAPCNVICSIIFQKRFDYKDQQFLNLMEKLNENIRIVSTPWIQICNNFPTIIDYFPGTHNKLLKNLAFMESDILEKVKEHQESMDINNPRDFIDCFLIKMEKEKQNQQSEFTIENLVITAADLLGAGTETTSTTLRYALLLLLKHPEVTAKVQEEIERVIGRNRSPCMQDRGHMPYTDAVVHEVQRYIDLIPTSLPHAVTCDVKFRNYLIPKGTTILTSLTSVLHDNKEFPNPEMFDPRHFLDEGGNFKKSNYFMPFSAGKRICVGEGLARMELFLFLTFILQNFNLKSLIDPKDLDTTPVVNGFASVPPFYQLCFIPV
In a further data set the target is CYP1A2 (Homo sapiens (Human), UniProt P05177). Briefly: Cytochrome P450 inhibition in human liver microsomes, CYP1A2. Conditions: read-out: 1A2 IC50, Protocol 1.
Chain of CYP1A2 (P05177 whole entry): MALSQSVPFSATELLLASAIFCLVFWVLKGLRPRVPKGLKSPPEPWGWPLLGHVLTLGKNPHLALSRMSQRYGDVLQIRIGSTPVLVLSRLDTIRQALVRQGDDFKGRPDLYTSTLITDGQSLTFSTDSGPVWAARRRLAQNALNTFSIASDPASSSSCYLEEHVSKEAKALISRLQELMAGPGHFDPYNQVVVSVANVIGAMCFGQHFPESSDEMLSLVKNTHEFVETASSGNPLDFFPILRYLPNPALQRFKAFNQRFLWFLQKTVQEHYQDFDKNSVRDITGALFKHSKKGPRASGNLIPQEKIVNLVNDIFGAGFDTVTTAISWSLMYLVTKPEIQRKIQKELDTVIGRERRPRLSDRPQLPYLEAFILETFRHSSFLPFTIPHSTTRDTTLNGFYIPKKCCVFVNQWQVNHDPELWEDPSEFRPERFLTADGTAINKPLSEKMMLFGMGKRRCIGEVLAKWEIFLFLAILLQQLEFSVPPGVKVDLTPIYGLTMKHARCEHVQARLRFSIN
In another data set the target is CYP2D6 (Homo sapiens (Human), UniProt P10635). The data set is described as follows: Cytochrome P450 inhibition in human liver microsomes, CYP2D6. The conditions noted are these: read-out: 2D6 IC50, Protocol 1.
Chain of CYP2D6 (P10635 whole entry): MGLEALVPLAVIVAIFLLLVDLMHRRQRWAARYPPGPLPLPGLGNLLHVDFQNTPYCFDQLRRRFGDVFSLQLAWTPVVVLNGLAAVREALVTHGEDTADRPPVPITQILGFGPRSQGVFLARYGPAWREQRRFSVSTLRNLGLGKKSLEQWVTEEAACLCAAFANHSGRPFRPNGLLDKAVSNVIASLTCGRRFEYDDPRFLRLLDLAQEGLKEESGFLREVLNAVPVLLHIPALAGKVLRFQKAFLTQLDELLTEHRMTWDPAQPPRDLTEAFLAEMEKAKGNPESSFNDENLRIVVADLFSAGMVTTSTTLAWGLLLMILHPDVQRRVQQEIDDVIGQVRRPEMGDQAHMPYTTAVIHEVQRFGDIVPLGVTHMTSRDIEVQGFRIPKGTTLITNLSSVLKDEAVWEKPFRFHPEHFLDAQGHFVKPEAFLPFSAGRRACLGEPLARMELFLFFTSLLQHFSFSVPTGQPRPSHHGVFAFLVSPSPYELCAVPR
For the next data set, the target named is Human α7 NAChR (Homo sapiens (Human), UniProt P36544). The data set is described as follows: Electrophysiology screen at 1 μM in Xenopus laevis oocytes. The conditions noted are these: 1 μM test compound; Imax = maximal current produced by 3 mM ACh. The format is cell-based. How it is done:
Human α7 NAChR plasmid was prepared by GeneWiz from accession NM_000746.5. Human α7 NAChR mRNA was prepared by TriLink at a concentration near 1 μg/μL. The human α7 NAChR mRNA was diluted in sterile water to a working concentration near 10 ng/μL.
Oocytes were obtained from Xenopus laevis frogs and treated with collagenase by Ecocyte Bioscience. Oocytes were injected with the working concentration of α7 NAChR mRNA at a volume of 50 nL for a total of approximately 0.5 ng of α7 NAChR mRNA. Oocytes were maintained in Barth's solution at a temperature of 16° C. The Barth's solution was replaced daily.
Two-electrode voltage clamp recordings were made 3-14 days following mRNA injections at a holding voltage of −70 mV. The NAChR recordings were performed in Ca^++-free Ringer solution (115 mM NaCl, 2 mM KCl, 1.8 mM BaCl2, 5 mM HEPES; pH˜7.4) to limit Ca^++-activated chloride currents.
In all oocyte recordings, drug and wash solutions were applied using a custom-designed microcapillary “linear array” which allows rapid application of agonists. Currents were recorded on a PC-based computer (PClamp, Molecular Devices, Sunnyvale, Calif.). Responses were reported as (I/Imax), where I is the amount of current given by a selected concentration of drug and Imax is the amount of maximal current produced by a 3 mM solution of ACh.
Stocks of test compounds were prepared in DMSO. Test solutions in Ringer were prepared immediately before application of test compound (final DMSO concentration of 0.1%). The final concentration of test compound in the test solution was 1 μM. The test solution was perfused onto the oocyte until a peak current was recorded. There was approximately two minutes of wash time with only the Ringer solution between each application of agonist. Measurement of the test solution was repeated between 2 and 6 times with a two minute wash time between each application of test solution. An average of the currents for each test compound was used to define the response for the test compound.

The target in data set [4] is T1, rat brain nicotinic receptor (α7 NAChR). The format is binding. The conditions noted are these: Protocol No. 2; [3H] α-Bungarotoxin 0.4 nM, rat brain P2 membrane.
Where [5] appears, read: Protocol No. 1, human liver microsomes.
Setting [6] is: Protocol No. 1, rat liver microsomes.

Where a name gives a salt, the structure may show the parent alone. Read-outs that look alike come from different tables or passages of the source.

T1 sequence (Q05941 23-502 limits assumed): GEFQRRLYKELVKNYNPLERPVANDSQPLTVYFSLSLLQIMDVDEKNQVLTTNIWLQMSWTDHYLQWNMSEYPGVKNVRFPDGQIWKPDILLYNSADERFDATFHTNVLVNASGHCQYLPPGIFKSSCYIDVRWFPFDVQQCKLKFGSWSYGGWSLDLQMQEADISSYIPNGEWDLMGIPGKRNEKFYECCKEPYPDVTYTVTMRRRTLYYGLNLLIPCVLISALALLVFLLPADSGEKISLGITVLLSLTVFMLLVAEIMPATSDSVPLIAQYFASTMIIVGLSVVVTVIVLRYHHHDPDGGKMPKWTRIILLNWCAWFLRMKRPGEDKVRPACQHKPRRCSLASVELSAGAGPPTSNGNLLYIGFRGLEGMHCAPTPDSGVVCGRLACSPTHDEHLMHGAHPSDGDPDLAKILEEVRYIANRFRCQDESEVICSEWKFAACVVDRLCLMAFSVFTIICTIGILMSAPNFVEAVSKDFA
Chain of Human α7 NAChR (P36544 23-502 limits assumed): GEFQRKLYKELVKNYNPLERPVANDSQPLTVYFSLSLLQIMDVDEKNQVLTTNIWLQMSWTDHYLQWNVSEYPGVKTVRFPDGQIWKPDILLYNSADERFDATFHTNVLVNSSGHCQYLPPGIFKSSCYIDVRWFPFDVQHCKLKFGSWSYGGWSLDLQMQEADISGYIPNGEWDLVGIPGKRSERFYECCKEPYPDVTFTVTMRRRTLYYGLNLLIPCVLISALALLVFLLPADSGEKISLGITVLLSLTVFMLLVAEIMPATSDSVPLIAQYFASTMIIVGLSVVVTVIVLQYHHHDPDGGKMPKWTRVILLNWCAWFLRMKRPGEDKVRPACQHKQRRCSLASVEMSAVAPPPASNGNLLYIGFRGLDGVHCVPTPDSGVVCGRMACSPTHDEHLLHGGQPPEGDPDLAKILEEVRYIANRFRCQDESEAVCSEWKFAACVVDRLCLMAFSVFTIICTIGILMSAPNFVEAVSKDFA

A word on the IC50: it is the concentration at which inhibition is half-maximal. The Ki is the equilibrium dissociation constant of an inhibitor or competing ligand from its target. On to `Cc1cc(C#N)cc2[nH]cc(C(=O)OCC34CCN(CC3)CC4)c12` [Compound 60, quinuclidin-4-ylmethyl 6-cyano-4-methyl-1H-indole-3-carboxylate], for which the IC50 in [1] is 0.474 µM; on CYP3A4 it was above 10 µM; at CYP2C19, above 10 µM; on CYP1A2, above 10 µM; at CYP2D6 it was above 10 µM. This molecule had a Ki in data set [1] of 0.407 µM. The molecule further registered an HLM in data set [2] (human, microsomes) of 15.0953 mL/min/kg. For the same molecule, the RLM in data set [3] (rat, microsomes) turned out to be 78.5875 mL/min/kg. Besides, the “% Remaining @ 2 h” value in “Human plasma stability” (human, 2 h) is recorded as 89.46%.
In data set [1], `O=C(OCC12CCN(CC1)CC2)c1c[nH]c2ccc(F)c(Cl)c12` [Compound 62, quinuclidin-4-ylmethyl 4-chloro-5-fluoro-1H-indole-3-carboxylate hydrochloride] displayed an IC50 of 0.113 µM and a Ki of 0.0976 µM. The molecule further returned an I/Imax at Human α7 NAChR of 0.171. For the same molecule, the HLM in [2] (human, microsomes) is recorded as 7.061 mL/min/kg. In [3] (rat, microsomes), this molecule gave an RLM of 498.991 mL/min/kg. Moreover, in the data set “Human plasma stability” (human, 2 h), the “% Remaining @ 2 h” value is reported as 74.02%.
In data set [1], `Cc1ccc2[nH]cc(C(=O)OCC34CCN(CC3)CC4)c2c1Cl` [Compound 63, quinuclidin-4-ylmethyl 4-chloro-5-methyl-1H-indole-3-carboxylate] displayed an IC50 of 0.117 µM and a Ki of 0.101 µM. At Human α7 NAChR, this molecule displayed an I/Imax of 0.118. Besides, the HLM in data set [2] (human, microsomes) worked out at 0.4623 mL/min/kg. This molecule had an RLM in data set [3] (rat, microsomes) of 1465.43 mL/min/kg. Besides, in “Human plasma stability” (human, 2 h), the “% Remaining @ 2 h” value stood at 74.47%.
`Cc1cc2[nH]cc(C(=O)OCC34CCN(CC3)CC4)c2cc1F` [Compound 72, Quinuclidin-4-ylmethyl 5-fluoro-6-methyl-1H-indole-3-carboxylate hydrochloride]: in [1], half-maximal inhibition (IC50) was put at 0.145 µM and the Ki amounted to 0.125 µM. At Human α7 NAChR, this molecule returned an I/Imax of 0.347. The same molecule yielded an HLM in [2] (setting [5]) of 3.032 mL/min/kg. Further, in data set [3] (setting [6]), the RLM was determined as 339.452 mL/min/kg. Also, the “% Remaining @ 2 h” value in the data set “Human plasma stability” (Protocol No. 2, 37° C.) was 70.78%.
In data set [1], `Cc1cc2[nH]cc(C(=O)OCC34CCN(CC3)CC4)c2cc1C.Cl` [Compound 73, Quinuclidin-4-ylmethyl 5,6-dimethyl-1H-indole-3-carboxylate hydrochloride] had an IC50 of 0.168 µM and a Ki of 0.145 µM. Further, on Human α7 NAChR, the I/Imax was 0.367. Besides, the HLM in data set [2] (setting [5]) was found to be 2.825 mL/min/kg. The RLM in [3] (setting [6]) came to 766.779 mL/min/kg. Moreover, the “% Remaining @ 2 h” value in the data set “Human plasma stability” (Protocol No. 2, 37° C.) is 41.93%.
For `COc1cc(Cl)cc2[nH]cc(C(=O)OCC34CCN(CC3)CC4)c12.Cl` [Compound 74, quinuclidin-4-ylmethyl 6-chloro-4-methoxy-1H-indole-3-carboxylate hydrochloride], in [1], half-maximal inhibition (IC50) required 0.181 µM and the Ki is 0.154 µM. The same molecule displayed an I/Imax on Human α7 NAChR of 0.157. The HLM in data set [2] (setting [5]) turned out to be 9.6502 mL/min/kg. This molecule had an RLM in [3] (setting [6]) of 342.736 mL/min/kg. For the same molecule, the “% Remaining @ 2 h” value in “Human plasma stability” (Protocol No. 2, 37° C.) amounted to 61.85%.
In [1], `Cl.O=C(OCC12CCN(CC1)CC2)c1c[nH]c2cccc(C(F)(F)F)c12` [Compound 80, Quinuclidin-4-ylmethyl 4-(trifluoromethyl)-1H-indole-3-carboxylate hydrochloride] registered a concentration for half-maximal inhibition (IC50) of 0.203 µM and a Ki of 0.176 µM. Moreover, the I/Imax on Human α7 NAChR stood at 0.032. In [2] (setting [5]), this molecule registered an HLM of 5.54 mL/min/kg. The RLM in data set [3] (setting [6]) amounted to 1443.16 mL/min/kg. Moreover, in “Human plasma stability” (Protocol No. 2, 37° C.), the “% Remaining @ 2 h” value was found to be 81.31%.
`COCCOc1ccc2[nH]cc(C(=O)OCC34CCN(CC3)CC4)c2c1C` [Compound 91, quinuclidin-4-ylmethyl 5-(2-methoxyethoxy)-4-methyl-1H-indole-3-carboxylate]: in [4], the midpoint of inhibition, the IC50, lay at 0.221 µM and the inhibitory constant (Ki) was found to be 0.859 µM. This molecule also had an I/Imax on Human α7 NAChR of 0.205. In data set [2] (human, microsomes), the HLM was determined as 6.14 mL/min/kg. Further, the RLM in data set [3] (rat, microsomes) was determined as 235.4 mL/min/kg. The “% Remaining @ 2 h” value in “Human plasma stability” (human, 2 h) worked out at 81.12%.
On to `COCCCOc1ccc2[nH]cc(C(=O)OCC34CCN(CC3)CC4)c2c1C` [Compound 92, quinuclidin-4-ylmethyl 5-(3-methoxypropoxy)-4-methyl-1H-indole-3-carboxylate], for which, in [4], the IC50 worked out at 0.0761 µM and the Ki is 0.133 µM. At Human α7 NAChR, this molecule displayed an I/Imax of 0.266. The molecule further registered an HLM in data set [2] (human, microsomes) of 10.37 mL/min/kg. In data set [3] (rat, microsomes), this molecule came in with an RLM of 149.88 mL/min/kg. Besides, the “% Remaining @ 2 h” value in the data set “Human plasma stability” (human, 2 h) came to 64.72%.
